Publication PMC3101112 (Cancer Management and Research, 2011)

What was measured:
pERK T202Y204 in HUVEC = assay: Cell-based target inhibition assay, HUVEC, VEGF, pERK; set-up: species or system human; settings: Homo sapiens, read-out: Cell-Based Target Inhibition Assays IC50, pERK T202Y204
p70S6K = p70S6K (Homo sapiens, UniProt P23443); assay: Biochemical inhibition profile, p70S6K; settings: read-out: p70S6K percent inhibition at 20 μM
MV4-11 = assay: cells; type: cell-based; settings: Homo sapiens, MV4-11, read-out: Cell-Based Antiproliferation Assay IC50
pFLT3 = settings: Western blotting; 200 mg; 10/13 patients; cited from earlier work
EPHA8 = EPHA8 (Homo sapiens, UniProt P29322); assay: Biochemical inhibition profile, EPHA8
RAF = assay: Biochemical inhibition profile, RAF; set-up: species or system Human; settings: read-out: Biochemical Inhibition Profile IC50, RAF
[1] = tested on: pERK T202Y204 in HUVEC (with BSA); assay: Cell-based target inhibition assay, HUVEC, VEGF, pERK with BSA; set-up: species or system human; settings: Homo sapiens, read-out: Cell-Based Target Inhibition Assays IC50, pERK T202Y204 (with BSA)

Chain of p70S6K (P23443 whole entry): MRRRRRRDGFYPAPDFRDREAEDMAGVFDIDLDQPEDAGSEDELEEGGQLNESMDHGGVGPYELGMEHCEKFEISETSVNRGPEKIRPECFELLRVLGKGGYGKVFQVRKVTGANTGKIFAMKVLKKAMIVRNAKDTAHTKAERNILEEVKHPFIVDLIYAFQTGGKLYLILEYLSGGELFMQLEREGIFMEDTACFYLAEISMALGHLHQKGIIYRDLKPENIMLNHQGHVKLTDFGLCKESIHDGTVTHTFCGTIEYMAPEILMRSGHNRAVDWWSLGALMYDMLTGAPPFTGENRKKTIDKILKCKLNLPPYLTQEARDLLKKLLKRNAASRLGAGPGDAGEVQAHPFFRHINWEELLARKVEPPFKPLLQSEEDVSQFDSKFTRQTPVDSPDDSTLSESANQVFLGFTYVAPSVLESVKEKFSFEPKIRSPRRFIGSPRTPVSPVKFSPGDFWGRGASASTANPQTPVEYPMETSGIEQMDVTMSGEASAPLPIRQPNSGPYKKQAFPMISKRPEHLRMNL
Chain of EPHA8 (P29322 28-1005): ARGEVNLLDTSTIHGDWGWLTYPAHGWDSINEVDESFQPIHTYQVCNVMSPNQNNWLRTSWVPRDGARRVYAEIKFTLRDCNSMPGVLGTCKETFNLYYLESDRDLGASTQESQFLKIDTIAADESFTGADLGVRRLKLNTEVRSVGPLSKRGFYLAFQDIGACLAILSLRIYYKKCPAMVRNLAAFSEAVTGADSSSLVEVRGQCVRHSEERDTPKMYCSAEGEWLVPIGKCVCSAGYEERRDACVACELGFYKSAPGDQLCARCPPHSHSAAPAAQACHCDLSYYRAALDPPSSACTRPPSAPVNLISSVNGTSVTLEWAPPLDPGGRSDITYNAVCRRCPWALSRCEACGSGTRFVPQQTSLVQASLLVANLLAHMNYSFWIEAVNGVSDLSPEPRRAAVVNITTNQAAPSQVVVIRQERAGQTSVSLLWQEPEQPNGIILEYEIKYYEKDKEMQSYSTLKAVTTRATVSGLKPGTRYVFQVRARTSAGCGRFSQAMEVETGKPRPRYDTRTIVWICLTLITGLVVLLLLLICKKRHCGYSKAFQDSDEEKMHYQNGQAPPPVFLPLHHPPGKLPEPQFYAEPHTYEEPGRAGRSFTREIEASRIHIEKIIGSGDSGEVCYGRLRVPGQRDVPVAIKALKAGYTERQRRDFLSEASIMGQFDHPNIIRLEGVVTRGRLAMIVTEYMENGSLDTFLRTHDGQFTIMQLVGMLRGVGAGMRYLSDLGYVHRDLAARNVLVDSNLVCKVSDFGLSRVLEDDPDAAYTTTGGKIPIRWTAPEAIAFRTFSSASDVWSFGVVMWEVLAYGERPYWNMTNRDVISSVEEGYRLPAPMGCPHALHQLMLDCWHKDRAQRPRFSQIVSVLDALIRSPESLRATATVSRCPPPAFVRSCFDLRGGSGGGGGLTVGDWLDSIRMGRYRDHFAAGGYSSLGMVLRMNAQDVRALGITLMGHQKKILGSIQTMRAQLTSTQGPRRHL

SMILES	IC50 (pERK T202Y204 in HUVEC) [nM]	inhibition at 20 µM (p70S6K) [%]	IC50 (MV4-11) [nM]	Patients with reduction of pFLT3 (pFLT3) [%]	IC50 (EPHA8) [µM]	IC50 (RAF) [µM]	IC50 [1] [nM]
CCN(CC)CCNC(=O)c1c(C)[nH]c(/C=C2\C(=O)Nc3ccc(F)cc32)c1C [Sunitinib, reference compound]	28.7	92.3	19.6	77	> 20	> 20	–
CNC(=O)c1cc(Oc2ccc(NC(=O)Nc3ccc(Cl)c(C(F)(F)F)c3)cc2)ccn1 [Sorafenib]	–	75.6	11.7	–	–	–	38
